Series [1] has as its target T1, Albumin (Homo sapiens, UniProt P02768). Description: Binding affinity to human albumin assessed as dissociation constant by fluorescence polarization assay. In general terms: Fluorescence polarisation rises when a labelled molecule tumbles more slowly, as on binding a larger partner.
A short description of series [2]: Terminal half life in iv dosed mouse. It is filed as ADME, organism-based. The settings on record: in vivo, read-out: beta t1/2 (converted).
Series [3] addresses T1, Albumin. The series can be described thus: Binding affinity to human albumin assessed as dissociation constant by ITC method. In general terms: Isothermal titration calorimetry measures the heat released or taken up as one component is titrated into another.
Series [4] has as its target T2, Albumin (Mus musculus, UniProt P07724). Description: Binding affinity to mouse albumin assessed as dissociation constant by fluorescence polarization assay.
The target in series [5] is T1, Albumin. The series can be described thus: Binding affinity to human serum albumin by fluorescence polarization assay.
Series [6] addresses T2, Albumin. The series can be described thus: Binding affinity to mouse albumin.
For series [7], the target named is T1, Albumin. The series can be described thus: Binding affinity to human albumin.
For series [8], the target named is T1, Albumin. The series can be described thus: Binding affinity to human albumin assessed as dissociation constant.
For series [9], the species on record is Macaca fascicularis. Description: Terminal half life in monkey. To be noted: cynomolgus monkey, in vivo; read-out: beta t1/2 (converted).

T1 sequence (P02768 whole entry): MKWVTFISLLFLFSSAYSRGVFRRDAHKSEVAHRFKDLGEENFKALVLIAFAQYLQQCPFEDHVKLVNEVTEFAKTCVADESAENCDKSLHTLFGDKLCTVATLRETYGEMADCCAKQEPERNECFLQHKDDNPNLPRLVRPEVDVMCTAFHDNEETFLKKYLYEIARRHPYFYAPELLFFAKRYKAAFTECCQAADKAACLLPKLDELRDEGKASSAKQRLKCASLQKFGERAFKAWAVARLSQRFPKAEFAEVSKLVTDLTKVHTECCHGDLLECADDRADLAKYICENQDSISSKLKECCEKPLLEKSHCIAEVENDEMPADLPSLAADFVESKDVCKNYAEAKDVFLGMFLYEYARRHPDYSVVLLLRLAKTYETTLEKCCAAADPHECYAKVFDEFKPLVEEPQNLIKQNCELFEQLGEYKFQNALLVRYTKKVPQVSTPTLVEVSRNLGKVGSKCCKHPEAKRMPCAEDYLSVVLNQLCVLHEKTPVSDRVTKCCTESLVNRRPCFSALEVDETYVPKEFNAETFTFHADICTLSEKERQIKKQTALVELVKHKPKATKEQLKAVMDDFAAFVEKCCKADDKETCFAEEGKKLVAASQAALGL
T2 sequence (P07724 whole entry): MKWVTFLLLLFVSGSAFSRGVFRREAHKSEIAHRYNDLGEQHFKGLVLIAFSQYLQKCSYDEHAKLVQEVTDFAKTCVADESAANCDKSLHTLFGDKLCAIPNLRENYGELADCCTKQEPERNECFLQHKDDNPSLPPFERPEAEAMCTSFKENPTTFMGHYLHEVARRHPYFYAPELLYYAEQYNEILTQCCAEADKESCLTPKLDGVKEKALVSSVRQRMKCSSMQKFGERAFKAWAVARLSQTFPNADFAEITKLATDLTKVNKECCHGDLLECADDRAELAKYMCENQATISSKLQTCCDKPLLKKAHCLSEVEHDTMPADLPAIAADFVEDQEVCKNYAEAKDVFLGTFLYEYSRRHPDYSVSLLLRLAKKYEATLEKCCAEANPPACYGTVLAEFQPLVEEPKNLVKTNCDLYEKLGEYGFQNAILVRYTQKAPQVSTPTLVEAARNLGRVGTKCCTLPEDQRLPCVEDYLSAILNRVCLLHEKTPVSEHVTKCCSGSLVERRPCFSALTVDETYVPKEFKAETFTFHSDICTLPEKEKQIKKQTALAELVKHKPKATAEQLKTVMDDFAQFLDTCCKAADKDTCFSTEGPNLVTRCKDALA

By Kd is commonly meant the free concentration of one partner at which half of the binding sites on the other are occupied at equilibrium, for simple one-to-one binding. In the case of `O=C(CCCc1ccc(I)cc1)NCCCC[C@@H](NC(=O)c1ccc(-c2c3ccc(=O)cc-3oc3cc(O)ccc23)c(C(=O)O)c1)C(=O)O`, the Kd in series [1] stood at 108 nM; in series [3] it was 330 nM; in [4], 118 nM. The half-life in [2] is 8.25 h.

In [5], `Cc1cccc(OCc2cn(CCCC[C@@H]3NC(=O)CNC(=O)[C@@H]4CCCN4C(=O)[C@H](CCCCNC(=O)c4cnc(N5CCOCC5)c(N)c4)NC(=O)[C@H](CCCCNC(=S)Nc4ccc5c(c4)C(=O)OC54c5ccc(O)cc5Oc5cc(O)ccc54)NC(=O)[C@H](C)NC(=O)CNC(=O)[C@@H]4CCCN4C(=O)[C@H](CCCCNC(=O)c4cccc(Oc5ccccc5)c4)NC(=O)[C@H](C)NC3=O)nn2)n1` registered a dissociation constant (Kd) of 6600 nM.

`O=C(CCCc1ccc(I)cc1)NCCCCC(NC(=O)c1ccc2c(c1)C(=O)OC21c2ccc(O)cc2Oc2cc(O)ccc21)C(=O)O` (stereo not given): the half-life in series [2] is 16.6 h. The Kd in [6] worked out at 3600 nM; in series [7], 3200 nM.

With Ac-WWEQDRDWDFDVFGGGTP-NH2, in series [8], the Kd was 15 nM. The half-life in [9] was 31.2 h.

Source of the values: ChEMBL document CHEMBL5244201, “Non-covalent albumin-binding ligands for extending the circulating half-life of small biotherapeutics” (Medchemcomm, 2019).
